Assay results as given in patent publication US11364256B2, “Viral inhibition” (Monash University, priority 2020, dated 2022).
Like-named read-outs stand apart in the source and are kept apart here.

What was measured:
Vero/hSLAM cells = conditions: for toxicity at any of the time points tested: sample wells or parallel drug alone samples, 5 μM
[1] = test system: seasonal coronavirus 229E; assay: Huh-7 cells infected with 229E, treated after infection, viral load by real-time PCR of supernatant; assay type: cell-based; conditions: Huh-7, 229E MOI 0.01, 48 h post infection, read-out: IC50 (FIG. 6, panels A/B)
Experimental: Huh-7 cells were infected with 229E (MOI=0.01) for 2 h prior to addition of vehicle (DMSO), Ivermectin (FIG. 6, panel A) or Moxidectin (FIG. 6, panel B) at the indicated concentrations. Samples were taken 48 h post infection for quantitation of viral load using real-time PCR of supernatant. Results represent mean±SD (n=6) relative to DMSO alone.

SARS-CoV-2 = assay: Prophylactic pre-treatment of Vero/hSLAM cells before SARS-CoV-2 infection, viral load by real-time PCR of supernatant; assay type: cell-based
Experimental: Vero/hSLAM cells were pre-treated with DMSO, ivermectin or Moxidectin at the indicated concentrations for 2 h prior to infection with SARS-CoV-2 (MOI=0.01) for 2 h in the presence of DMSO or drugs. Samples were washed post-adsorption and incubated in the fresh media containing DMSO or drugs for 48 h before quantitation of viral load using real-time PCR of supernatant. The results shown in FIG. 5 represent mean±SD (n=6) relative to DMSO alone. […] Average IC50 values for CALU-3 cells compared to Vero/hSLAM cells assayed under the same conditions are shown (Table, right, n=independent experiments).

[2] = test system: SARS-CoV-2 isolate Australia/VIC01/2020; assay: SARS-CoV-2 infected Vero/hSLAM cells treated after infection, viral RNA by real-time RT-PCR; assay type: cell-based
[3] = test system: SARS-CoV-2 clinical isolate Australia/VIC01/2020; assay: SARS-CoV-2 infected CALU-3 (human lung) cells, viral load by real-time PCR of supernatant; assay type: cell-based
Experimental: CALU-3 (human lung) cells were infected with SARS-CoV-2 clinical isolate Australia/VIC01/2020 (MOI=0.01) for 2 h prior to addition of vehicle (DMSO) or Ivermectin at the indicated concentrations indicated in FIG. 3. Samples were taken 24 h post infection for quantitation of viral load using real-time PCR of supernatant. The results illustrated in FIG. 3 represent mean±SD (n=6) relative to DMSO alone.

[4] = test system: seasonal coronavirus 229E; assay: Prophylactic pre-treatment of Huh-7 cells before 229E infection, viral load by real-time PCR; assay type: cell-based; conditions: Huh-7 pre-treated 2 h, 229E MOI 0.01, 48 h; read-out: IC50 (FIG. 6, panel C), prophylactic
Experimental: For assessment of prophylactic potential Huh-7 cells were pre-treated with DMSO or ivermectin at the indicated concentrations for 2 h prior to infection with 229E (MOI=0.01) for 2 h in the presence of DMSO or ivermectin (FIG. 6, panel C). Samples (n=5) were washed post-adsorption and incubated in the fresh media containing DMSO or ivermectin for 48 h before quantitation of viral load as above.

[5] = 48 h, compared to vehicle DMSO, Vero/hSLAM, E gene, concentration not restated (5 μM in FIG. 2, panel A)
[6] = 5 μM, 24 h, MOI 0.1, Vero/hSLAM, compared to vehicle DMSO

## CO/N=C1\C[C@]2(C[C@@H]3C[C@@H](C/C=C(\C)C[C@@H](C)/C=C/C=C4\CO[C@@H]5[C@H](O)C(C)=C[C@@H](C(=O)O3)[C@]45O)O2)O[C@H](/C(C)=C/C(C)C)[C@H]1C [moxidectin]
Vero/hSLAM cells
  toxicity at any of the time points tested: No toxicity
[1]; Human coronavirus 229E
  IC50: 240 nM
SARS-CoV-2; Severe acute respiratory syndrome coronavirus 2, Vero, read-out: IC50 +/− SEM (n*), treated prophylactically
  IC50: 1660 nM
SARS-CoV-2; Severe acute respiratory syndrome coronavirus 2, pre-treated 2 h, MOI 0.01, 48 h, supernatant, Vero/hSLAM, read-out: IC50 (FIG. 5), prophylactic
  IC50: 1800 nM
[2]; [5]
  reduction in viral RNA present in the supernatant (released virions): 99.9%
[2]; Severe acute respiratory syndrome coronavirus 2, 24 h, supernatant, E gene, MOI 0.01, Vero/hSLAM, read-out: Calculated IC50 (FIG. 2, panel B)
  IC50: 1300 nM
[2]; Severe acute respiratory syndrome coronavirus 2, 48 h, supernatant, E gene, MOI 0.01, Vero/hSLAM, read-out: Calculated IC50 (FIG. 2, panel C)
  IC50: 1300 nM
[2]; Severe acute respiratory syndrome coronavirus 2, 72 h, supernatant, E gene, MOI 0.01, Vero/hSLAM, read-out: Calculated IC50 (FIG. 2, panel D)
  IC50: 2400 nM

## ivermectin
Vero/hSLAM cells
  toxicity at any of the time points tested: No toxicity
Vero/hSLAM cells; serial dilutions, 48 h
  toxicity at any of the concentrations tested: no toxicity
[1]
  IC50: 180 nM
SARS-CoV-2; average of independent experiments, Vero/hSLAM, read-out: IC50 +/− SEM (n*), treated prophylactically
  IC50: 1730 nM
SARS-CoV-2; pre-treated 2 h, MOI 0.01, 48 h, supernatant, Vero/hSLAM, read-out: IC50 (FIG. 5), prophylactic
  IC50: 1600 nM
[3]; CALU-3, 24 h post infection, supernatant, MOI 0.01, read-out: IC50 (FIG. 3)
  IC50: 420 nM
[3]; average of independent experiments, CALU-3, read-out: IC50 +/− SEM (n*), CALU-3
  IC50: 410 nM
[4]
  IC50: 2060 nM
[2]; [6]
  reduction in cell-associated viral RNA (unreleased and unpackaged virions): 99.8%
  reduction in viral RNA present in the supernatant (released virions): 93%
[2]; 5 μM, 48 h, E gene, Vero/hSLAM
  reduction in viral RNA in both supernatant and cell pellets: > 5000
[2]; 5 μM, 48 h, supernatant and cell pellets, Vero/hSLAM
  reduction in viral RNA (equating to the >5000 reduction): 99.98%
[2]; 5 μM, 72 h versus 48 h, MOI 0.1, Vero/hSLAM
  further reduction in viral RNA at 72 h: no further reduction
[2]; 24 h, supernatant, E gene, MOI 0.01, Vero/hSLAM, read-out: Calculated IC50 (FIG. 2, panel B)
  IC50: 1400 nM
[2]; [5]
  reduction in viral RNA present in the supernatant (released virions): 99.5%
[2]; 48 h, supernatant, E gene, MOI 0.01, Vero/hSLAM, read-out: Calculated IC50 (FIG. 2, panel C)
  IC50: 2200 nM
[2]; 72 h, supernatant, E gene, MOI 0.01, Vero/hSLAM, read-out: Calculated IC50 (FIG. 2, panel D)
  IC50: 3100 nM
[2]; E gene, 48 h, treated 2 h post infection, MOI 0.1, Vero/hSLAM, panels C/D = supernatant and cell pellets, read-out: IC50 of ivermectin treatment (FIG. 1, panel C)
  IC50: 2800 nM
[2]; E gene, 48 h, treated 2 h post infection, MOI 0.1, Vero/hSLAM, panels C/D = supernatant and cell pellets, read-out: IC50 of ivermectin treatment (FIG. 1, panel D)
  IC50: 2400 nM
[2]; RdRp gene primers, 48 h, MOI 0.1, Vero/hSLAM, panels E/F = released (supernatant) and cell-associated virus, read-out: IC50 of ivermectin treatment (FIG. 1, panel E)
  IC50: 2500 nM
[2]; RdRp gene primers, 48 h, MOI 0.1, Vero/hSLAM, panels E/F = released (supernatant) and cell-associated virus, read-out: IC50 of ivermectin treatment (FIG. 1, panel F)
  IC50: 2200 nM
[2]; average of independent experiments, Vero/hSLAM assayed under the same conditions as CALU-3, read-out: IC50 +/− SEM (n*), Vero/hSLAM
  IC50: 2370 nM
